Data from patent publication US10197560B2 (priority 2013, dated 2019).
“Also recorded” adds a separate entry of the source.

Key:
[1] = biological target: T1, recombinant Rv3378c protein (Mycobacterium tuberculosis, UniProt P9WJ61); assay: Rv3378c enzymatic assays (tuberculosinyl transferase, HPLC-MS detection of 1-TbAd); assay type: biochemical, M. tuberculosis; settings: pH 7.4
T1 construct: hexahistidine (His6) tag from pET-28b, thrombin-cleavable (N, cleaved yes); made in house; host or cells: E. coli BL21-CodonPlus, co-expressed with GroES/GroEL chaperones
T1 sequence (P9WJ61 1-296): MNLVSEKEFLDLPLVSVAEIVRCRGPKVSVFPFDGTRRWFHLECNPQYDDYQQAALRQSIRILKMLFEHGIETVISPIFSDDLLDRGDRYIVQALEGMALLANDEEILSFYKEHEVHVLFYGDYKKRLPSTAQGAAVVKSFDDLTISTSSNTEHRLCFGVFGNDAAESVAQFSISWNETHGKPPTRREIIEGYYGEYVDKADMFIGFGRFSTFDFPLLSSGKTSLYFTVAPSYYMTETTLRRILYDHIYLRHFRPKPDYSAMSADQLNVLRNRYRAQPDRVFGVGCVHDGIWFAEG

phagosomal acidification = settings: synthetic tuberculosinols coupled to beads; reference (21); cited from earlier work

| Molecule | product formation by Rv3378c from diterpene pyrophosphate substrate and adenosine [1] | effect on phagosomal acidification (phagosomal acidification) |
| --- | --- | --- |
| CC(C)=CCC/C(C)=C/CC/C(C)=C/CC/C(C)=C/COP(=O)(O)OP(=O)(O)O [GGPP, geranylgeranyl pyrophosphate] | little or no product; also recorded: does not act on GGPP |  |
| C/C(=C\CO)CC[C@@]1(C)[C@@H]2CCCC(C)(C)C2=CC[C@@H]1C [tuberculosinols, tuberculosinol] |  | block phagosomal acidification |
| tuberculosinyl pyrophosphate [TbPP] | catalyzed the condensation of adenosine and TbPP to generate 1-TbAd |  |
